Source: EP1707622A1, “USE OF COMPOUNDS THAT REGULATE HDAC6 TUBULIN DEACETYLASE ACTIVITY IN THE PREPARATION OF PHARMACEUTICAL COMPOSITIONS, METHOD OF IDENTIFYING THE AFOR[…], SAID PHARMACEUTICAL COMPOUNDS AND APPLICATIONS THEREOF” (UNIVERSIDAD AUTONOMA DE MADRID CIUDAD UNIVERSITARIA …, priority 2004, dated 2005)
Where a SMILES comes first, the peptide text is derived from it. [ ]: non-standard residue; d: D form. Aoe = N[C@@H](CCCCCC(=O)[C@@H]1CO1)C(=O)O

System: J77 cells
Test: CD3 clustering in the central region of the immunological synapse
Assay type: cell-based, human
Settings: J77 cells, relative to cells transfected with the deficient mutant or lymphocytes treated with TSA; Figure 5B

Compound | percentage of mature synapses
O=C1N[C@@H](Cc2ccccc2)C(=O)N2CCC[C@@H]2C(=O)N[C@@H](CCCCCC(=O)[C@@H]2CO2)C(=O)N[C@H]1Cc1ccccc1 [trapoxin B] (cyclo(FF[dP][Aoe])) | neither trapoxin B nor sodium butyrate modified it in a significant manner
CCCC(=O)[O-].[Na+] [sodium butyrate] | neither trapoxin B nor sodium butyrate modified it in a significant manner
